From PubChem BioAssay AID2060888 (Molecular Pharmacology Branch, DTP, NCI, 2025)

Test system: 695427-040-R-J1-PDC complex spheroid viability
Test: Anticancer human tumor 695427-040-R-J1-PDC patient-derived colon adenocarcinoma cell line growth inhibition [RAS]
Details: for IC50: curve of first compound; for viability, T/C: stronger effect = lower value; active = viability on the fitted dose curve at most 10% of control; inactive = the rest
How it was run: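 Tumour cells grown as complex spheroids with HUVEC endothelial cells and mesenchymal stem cells, treated with RAS pathway inhibitor combinations. Each agent spans half-log steps from near clinical Cmax, or 10 microM where Cmax is unknown.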

[1] = second compound 0.0316 µM, first compound 0.0316 µM
[2] = second compound 0.0316 µM, first compound 0.1 µM
[3] = second compound 0.0316 µM, first compound 0.316 µM
[4] = second compound 0.0316 µM, first compound 1 µM
[5] = second compound 0.0316 µM, first compound 3.16 µM
[6] = second compound 0.0316 µM, first compound 10 µM
[7] = second compound 0.1 µM, first compound 0.0316 µM
[8] = second compound 0.1 µM, first compound 0.1 µM
[9] = second compound 0.1 µM, first compound 0.316 µM
[10] = second compound 0.1 µM, first compound 1 µM
[11] = second compound 0.1 µM, first compound 3.16 µM
[12] = second compound 0.1 µM, first compound 10 µM
[13] = second compound 0.316 µM, first compound 0.0316 µM
[14] = second compound 0.316 µM, first compound 0.1 µM
[15] = second compound 0.316 µM, first compound 0.316 µM
[16] = second compound 0.316 µM, first compound 1 µM
[17] = second compound 0.316 µM, first compound 3.16 µM
[18] = second compound 0.316 µM, first compound 10 µM
[19] = second compound 1 µM, first compound 0.0316 µM
[20] = second compound 1 µM, first compound 0.1 µM
[21] = second compound 1 µM, first compound 0.316 µM
[22] = second compound 1 µM, first compound 1 µM
[23] = second compound 1 µM, first compound 3.16 µM
[24] = second compound 1 µM, first compound 10 µM
[25] = second compound 3.16 µM, first compound 0.0316 µM
[26] = second compound 3.16 µM, first compound 0.1 µM
[27] = second compound 3.16 µM, first compound 0.316 µM
[28] = second compound 3.16 µM, first compound 1 µM
[29] = second compound 3.16 µM, first compound 3.16 µM
[30] = second compound 3.16 µM, first compound 10 µM
[31] = second compound 10 µM, first compound 0.0316 µM
[32] = second compound 10 µM, first compound 0.1 µM
[33] = second compound 10 µM, first compound 0.316 µM
[34] = second compound 10 µM, first compound 1 µM
[35] = second compound 10 µM, first compound 3.16 µM
[36] = second compound 10 µM, first compound 10 µM
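Also: viability read after seven days of drug exposure.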
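For viability, T/C in this document: 100% = DMSO vehicle control viability.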

CCC(CC)c1cc(NC2CCC(N)C2)n2nccc2n1 (stereo not drawn) + C#Cc1c(F)ccc2cc(O)cc(-c3ncc4c(N5CC6CCC(C5)N6)nc(OCC56CCCN5CC(F)C6)nc4c3F)c12
inactive: viability, T/C [1] 102% | viability, T/C [2] 109% | viability, T/C [3] 110% | viability, T/C [4] 110% | viability, T/C [7] 95.5% | viability, T/C [8] 90.5% | viability, T/C [9] 108% | viability, T/C [10] 101% | viability, T/C [11] 6.65% | viability, T/C [12] 13.9% | viability, T/C [13] 99.3% | viability, T/C [14] 90.8% | viability, T/C [15] 97.2% | viability, T/C [16] 91.3% | viability, T/C [17] 7.6% | viability, T/C [18] 13.9% | viability, T/C [19] 76.9% | viability, T/C [20] 70.5% | viability, T/C [21] 76.8% | viability, T/C [22] 82.1% | viability, T/C [23] 6.13% | viability, T/C [24] 17% | viability, T/C [25] 66.9% | viability, T/C [26] 59.6% | viability, T/C [27] 64.9% | viability, T/C [28] 59.2% | viability, T/C [29] 4.92% | viability, T/C [30] 15.3% | viability, T/C [31] 40.6% | viability, T/C [32] 43.7% | viability, T/C [33] 43.6% | viability, T/C [34] 38.2%
1240 nM: IC50 (second compound 3.16 µM)
1800 nM: IC50 (second compound 0.316 µM)
1600 nM: IC50 (second compound 1 µM)
1890 nM: IC50 (second compound 0.1 µM)
active: viability, T/C [5] 5.99% | viability, T/C [6] 12.4% | viability, T/C [35] 1.94% | viability, T/C [36] 7.42%
1960 nM: IC50 (second compound 0.0316 µM)
< 31.6 nM: IC50 (second compound 10 µM)

NC1c2ccccc2OC12CCN(c1cnc3c(N4CCCc5ncccc54)n[nH]c3n1)CC2 (stereo not drawn) + CCn1c(-c2cccnc2C(C)OC)c2c3cc(ccc31)N1CCOC(CC(NC(=O)C(C(C)C)N(C)C(=O)C3(F)CCN(C(=O)C#CC(C)(C)N(C)C)CC3)C(=O)N3CCCC(N3)C(=O)OCC(C)(C)C2)C1
940 nM: IC50 (second compound 0.0949 µM)
1370 nM: IC50 (second compound 0.003 µM)
665 nM: IC50 (second compound 0.3 µM)
973 nM: IC50 (second compound 0.00949 µM)
914 nM: IC50 (second compound 0.000949 µM)
623 nM: IC50 (second compound 0.03 µM)
inactive: viability, T/C (second compound 0.000949 µM, first compound 0.0316 µM) 80.3% | viability, T/C (second compound 0.000949 µM, first compound 0.1 µM) 78.3% | viability, T/C (second compound 0.000949 µM, first compound 0.316 µM) 61.7% | viability, T/C (second compound 0.000949 µM, first compound 1 µM) 49.1% | viability, T/C (second compound 0.000949 µM, first compound 3.16 µM) 50.5% | viability, T/C (second compound 0.000949 µM, first compound 10 µM) 43.2% | viability, T/C (second compound 0.003 µM, first compound 0.0316 µM) 88.9% | viability, T/C (second compound 0.003 µM, first compound 0.1 µM) 70.5% | viability, T/C (second compound 0.003 µM, first compound 0.316 µM) 60.6% | viability, T/C (second compound 0.003 µM, first compound 1 µM) 45.7% | viability, T/C (second compound 0.003 µM, first compound 3.16 µM) 55.7% | viability, T/C (second compound 0.003 µM, first compound 10 µM) 38.6% | viability, T/C (second compound 0.00949 µM, first compound 0.0316 µM) 95.2% | viability, T/C (second compound 0.00949 µM, first compound 0.1 µM) 58.1% | viability, T/C (second compound 0.00949 µM, first compound 0.316 µM) 62.7% | viability, T/C (second compound 0.00949 µM, first compound 1 µM) 54.6% | viability, T/C (second compound 0.00949 µM, first compound 3.16 µM) 54.1% | viability, T/C (second compound 0.00949 µM, first compound 10 µM) 32.8% | viability, T/C (second compound 0.03 µM, first compound 0.0316 µM) 79.3% | viability, T/C (second compound 0.03 µM, first compound 0.1 µM) 63.4% | viability, T/C (second compound 0.03 µM, first compound 0.316 µM) 53% | viability, T/C (second compound 0.03 µM, first compound 1 µM) 45.1% | viability, T/C (second compound 0.03 µM, first compound 3.16 µM) 50.6% | viability, T/C (second compound 0.03 µM, first compound 10 µM) 35.3% | viability, T/C (second compound 0.0949 µM, first compound 0.0316 µM) 67% | viability, T/C (second compound 0.0949 µM, first compound 0.1 µM) 67.4% | viability, T/C (second compound 0.0949 µM, first compound 0.316 µM) 53.2% | viability, T/C (second compound 0.0949 µM, first compound 1 µM) 47.4% | viability, T/C (second compound 0.0949 µM, first compound 3.16 µM) 46.2% | viability, T/C (second compound 0.0949 µM, first compound 10 µM) 31.7% | viability, T/C (second compound 0.3 µM, first compound 0.0316 µM) 75.3% | viability, T/C (second compound 0.3 µM, first compound 0.1 µM) 46.4% | viability, T/C (second compound 0.3 µM, first compound 0.316 µM) 60.4% | viability, T/C (second compound 0.3 µM, first compound 1 µM) 51.8% | viability, T/C (second compound 0.3 µM, first compound 3.16 µM) 38.9% | viability, T/C (second compound 0.3 µM, first compound 10 µM) 27.1%

C[C@@H](NC(=O)c1ncnc(N)c1Cl)c1ncc(C(=O)Nc2cc(C(F)(F)F)c(Cl)cn2)s1 + C=CC(=O)N1CCN(c2nc(OCC3CCCN3C)nc3c(F)c(-c4nc(N)cc(C)c4C(F)(F)F)c(Cl)cc23)C(C)C1
inactive: viability, T/C (second compound 0.00316 µM, first compound 0.0316 µM) 108% | viability, T/C (second compound 0.00316 µM, first compound 0.1 µM) 109% | viability, T/C (second compound 0.00316 µM, first compound 0.316 µM) 111% | viability, T/C (second compound 0.00316 µM, first compound 1 µM) 105% | viability, T/C (second compound 0.00316 µM, first compound 3.16 µM) 99.7% | viability, T/C (second compound 0.00316 µM, first compound 10 µM) 75.2% | viability, T/C (second compound 0.01 µM, first compound 0.0316 µM) 121% | viability, T/C (second compound 0.01 µM, first compound 0.1 µM) 109% | viability, T/C (second compound 0.01 µM, first compound 0.316 µM) 114% | viability, T/C (second compound 0.01 µM, first compound 1 µM) 103% | viability, T/C (second compound 0.01 µM, first compound 3.16 µM) 96.2% | viability, T/C (second compound 0.01 µM, first compound 10 µM) 75.9% | viability, T/C [1] 107% | viability, T/C [2] 99.8% | viability, T/C [3] 104% | viability, T/C [4] 101% | viability, T/C [5] 94.4% | viability, T/C [6] 75.9% | viability, T/C [7] 113% | viability, T/C [8] 105% | viability, T/C [9] 99.8% | viability, T/C [10] 101% | viability, T/C [11] 98.4% | viability, T/C [12] 73.1% | viability, T/C [13] 110% | viability, T/C [14] 105% | viability, T/C [15] 108% | viability, T/C [16] 105% | viability, T/C [17] 103% | viability, T/C [18] 76.6% | viability, T/C [19] 108% | viability, T/C [20] 94.4% | viability, T/C [21] 103% | viability, T/C [22] 95.5% | viability, T/C [23] 92.6% | viability, T/C [24] 72.9%
> 10000 nM: IC50 (second compound 0.00316 µM) | IC50 (second compound 0.01 µM) | IC50 (second compound 0.0316 µM) | IC50 (second compound 0.1 µM) | IC50 (second compound 0.316 µM) | IC50 (second compound 1 µM)

CC(C)NCC(C(=O)N1CCN(c2ncnc3c2C(C)CC3O)CC1)c1ccc(Cl)cc1 (stereo not drawn) + C#Cc1c(F)ccc2cc(O)cc(-c3ncc4c(N5CC6CCC(C5)N6)nc(OCC56CCCN5CC(F)C6)nc4c3F)c12
> 10000 nM: IC50 (second compound 0.0316 µM) | IC50 (second compound 0.1 µM) | IC50 (second compound 0.316 µM) | IC50 (second compound 1 µM)
inactive: viability, T/C [1] 111% | viability, T/C [2] 92.8% | viability, T/C [3] 89.6% | viability, T/C [4] 84% | viability, T/C [5] 89.6% | viability, T/C [6] 103% | viability, T/C [7] 92.6% | viability, T/C [8] 78.7% | viability, T/C [9] 83.7% | viability, T/C [10] 71% | viability, T/C [11] 94.8% | viability, T/C [12] 92.3% | viability, T/C [13] 83.7% | viability, T/C [14] 85.8% | viability, T/C [15] 82.7% | viability, T/C [16] 73.3% | viability, T/C [17] 76.6% | viability, T/C [18] 82.2% | viability, T/C [19] 66.2% | viability, T/C [20] 60.2% | viability, T/C [21] 60.3% | viability, T/C [22] 60.9% | viability, T/C [23] 67.2% | viability, T/C [24] 60.3% | viability, T/C [25] 59.6% | viability, T/C [26] 65.5% | viability, T/C [27] 48.7% | viability, T/C [28] 46.3% | viability, T/C [29] 48.5% | viability, T/C [30] 39.2% | viability, T/C [31] 33.6% | viability, T/C [32] 44.1% | viability, T/C [33] 34.4% | viability, T/C [34] 32.3% | viability, T/C [35] 26.1% | viability, T/C [36] 18.7%
< 31.6 nM: IC50 (second compound 10 µM)
773 nM: IC50 (second compound 3.16 µM)
